Source: patent US10287301B2 (Achillion Pharmaceuticals, Inc., priority 2015, dated 2019)

Experiments:
[1] = test system: complement alternative pathway (CAP), hemolysis of rabbit erythrocytes (RE); assay: Combination therapy: hemolysis assay of two compounds; format: cell-based, human; conditions: combination with Complement Factor D inhibitor ("1"); 95% confidence limits; means ± standard deviations from two or three independent experiments
Method: The combinatorial efficacy of two compounds on the complement alternative pathway (CAP) was assessed by determining the effect of two compounds mixed together at various concentrations with Normal Human Serum (NHS) on the hemolysis of rabbit erythrocytes (RE) or the production of terminal complement complex (TCC). In both assays the two test compounds were prepared individually in seven-point dilution series, with an eighth sample for each containing solvent alone, and each of the 64 possible combinations was tested in duplicate or triplicate wells.
In the hemolysis assay, NHS (Complement Technology) diluted to 10% in GVB^0 Buffer (0.1% gelatin, 5 mM Veronal, 145 mM NaCl, 0.025% NaN3, pH 7.3, Complement Technology) plus 10 mM Mg-EGTA was incubated with the compounds at various concentrations for 15 minutes at 37° C. RE (Complement Technology) freshly suspended in GVB^0 plus 10 mM Mg-EGTA was added to a final concentration of 1×10^8 cells/mL and reactions were incubated for 30 minutes at 37° C. Positive control reactions consist of GVB^0 plus Mg-EGTA with NHS and RE but without test compounds; negative control reactions consist of GVB^0 plus Mg-EGTA with RE only. Samples were centrifuged at 2000 g for 3 minutes and supernatants collected. Absorbance at 405 nm (A405) was recorded using a microplate spectrophotometer.
Combinatorial effects in both assays were analyzed using the three-dimensional surface-graphing method of Prichard, M. N. and C. Shipman, Jr., Antiviral Research 1990, 14: 181-205, wherein the X-axis and Y-axis indicate test compound concentrations and the Z-axis indicates the difference between measured inhibition and a theoretically determined additive inhibition. For an additive combinatorial relationship the surface graph will resemble a horizontal plane of zero height, whereas positive surface peaks indicate greater inhibition than expected and therefore synergy, and negative surface peaks indicate less inhibition than expected and therefore antagonism.
Synergy and antagonism volumes are the summed volumes of peaks respectively above and below the Z=0 plane on the surface graph. Volumes are determined using 95% confidence limits to assure significance. Compounds are considered additive for volumes between −25 and 25. Compounds are considered slightly synergistic for volumes between 25 and 50, moderately synergistic for volumes between 50 and 100, and strongly synergistic for volumes greater than 100. Compounds are considered slightly antagonistic for volumes between −25 and −50, moderately antagonistic for volumes between −50 and −100, and strongly antagonistic for volumes less than −100. Results are presented as means±standard deviations from two or three independent experiments.

[2] = target: Human Factor D (Homo sapiens (Human), UniProt P00746); assay: Human Factor D Assay; format: biochemical; conditions: Human Factor D 80 nM, substrate Z-L-Lys-SBzl; read-out: IC50
Summary of the method: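 Thioester cleavage assay: human Factor D (serum-derived, 80 nM final), substrate Z-L-Lys-SBzl with DTNB, both 100 μM final, after 5 min compound preincubation at room temperature.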

Sequence of Human Factor D (P00746 26-253): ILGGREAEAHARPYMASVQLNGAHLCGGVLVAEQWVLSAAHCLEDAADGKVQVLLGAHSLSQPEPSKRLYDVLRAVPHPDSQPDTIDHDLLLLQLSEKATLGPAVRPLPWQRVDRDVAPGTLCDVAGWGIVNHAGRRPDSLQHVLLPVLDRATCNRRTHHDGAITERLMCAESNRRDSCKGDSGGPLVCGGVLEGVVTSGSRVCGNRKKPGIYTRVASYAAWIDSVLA

Row | Structure (SMILES) | Antagonism Volume [1] | Synergy Volume [1] | IC50 [2]
1 | CCN[C@H](CC(=O)N1CCN(c2nc(N)c3cc(OC)c(OC)c(F)c3n2)CC1)c1ccc(F)cc1 [Complement Factor B inhibitor] | −18 ± 10 μM^2 · % inhibition | 157 ± 99 μM^2 · % inhibition | –
2 | CC[C@H](C)[C@H](N)C(=O)N[C@H]1CSSC[C@@H](C(=O)N[C@H](C(N)=O)[C@@H](C)O)NC(=O)[C@H](CCCN=C(N)N)NC(=O)[C@H](Cc2cnc[nH]2)NC(=O)[C@H](Cc2cnc[nH]2)NC(=O)CNC(=O)[C@H](Cc2c[nH]c3ccccc23)NC(=O)[C@H](CC(=O)O)NC(=O)[C@H](CCC(N)=O)NC(=O)[C@H](C(C)C)NC(=O)[C@H](C(C)C)NC1=O [Compstatin] | −17 ± 15 μM^2 · % inhibition | 244 ± 104 μM^2 · % inhibition | –
3 | N=C(N)c1ccc2cc(OC(=O)c3ccc(N=C(N)N)cc3)ccc2c1 [FUT-175] | −59 ± 11 μM^2 · % inhibition | 95 ± 37 μM^2 · % inhibition | –
4 | NC(=O)c1nn(CC(=O)N2[C@@H]3C[C@@H]3C[C@H]2C(=O)Nc2cccc(-c3ccccc3Cl)c2F)c2ccc(-c3cncnc3)cc12 [Compound 6, 1-(2-((1R,3S,5R)-3-((2′-Chloro-2-fluoro-[1,1′-biphenyl]-3-yl)carbamoyl)-azabicyclo[3.1.0]hexan-2-yl)-2-oxoethyl)-5-(pyrimidin-5-yl)-1H-indazole-3-carboxamide] | – | – | < 1000 nM
